Data taken from the supplement of paper PMC10307832.

Key:
Assay in all cases: relative viability (nuclei count vs DMSO), 5 days (fraction); higher = more cells survive
NCI-H647 = tested on: NCI-H647
Method in brief: (§1)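 For relative viability, nuclei counts in treated wells were divided by those in vehicle wells. Lung cancer cell lines had been pin-tool dosed in 1536-well plates the day after seeding and cultured for 5 days, then fixed and stained in one step (final 0.05% Triton X-100, 1% formaldehyde, 1 ug/ml Hoechst) and imaged at 4×. Doses were one drug alone or a fixed anchor-drug dose plus five library-drug doses (not always all listed) in √10 steps, and values are duplicate-plate medians.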

NCI-H1437 = tested on: NCI-H1437
Method in brief: as §1

NCI-H1651 = tested on: NCI-H1651
Method in brief: as §1

HCC-78 = tested on: HCC-78
Method in brief: as §1

NCI-H661 = tested on: NCI-H661
Method in brief: as §1

NCI-H1395 = tested on: NCI-H1395
Method in brief: as §1

NCI-H1793 = tested on: NCI-H1793
Method in brief: as §1

NCI-H23 = tested on: NCI-H23
Method in brief: as §1

NCI-H1734 = tested on: NCI-H1734
Method in brief: as §1

EMC-BAC-2 = tested on: EMC-BAC-2
Method in brief: as §1

LCLC-103H = tested on: LCLC-103H
Method in brief: as §1

ABC-1 = tested on: ABC-1
Method in brief: as §1

NCI-H1792 = tested on: NCI-H1792
Method in brief: as §1

NCI-H2405 = tested on: NCI-H2405
Method in brief: as §1

RERF-LC-KJ = tested on: RERF-LC-KJ
Method in brief: as §1

NCI-H1915 = tested on: NCI-H1915
Method in brief: as §1

SK-LU-1 = tested on: SK-LU-1
Method in brief: as §1

201T = tested on: 201T
Method in brief: as §1

EPLC-272H = tested on: EPLC-272H
Method in brief: as §1

NCI-H2023 = tested on: NCI-H2023
Method in brief: as §1

NCI-H1975 = tested on: NCI-H1975
Method in brief: as §1

UMC-11 = tested on: UMC-11
Method in brief: as §1

LOU-NH91 = tested on: LOU-NH91
Method in brief: as §1

## Cc1cnc(-c2cnc(NCCNc3ccc(C#N)cn3)nc2-c2ccc(Cl)cc2Cl)[nH]1 + Cc1nc(Nc2ncc(C(=O)Nc3c(C)cccc3Cl)s2)cc(N2CCN(CCO)CC2)n1 [Dasatinib] (partner 0.075 µM)
NCI-H647; first compound 0.08 µM
  relative viability: 0.229
NCI-H647; first compound 0.253 µM
  relative viability: 0.197
NCI-H647; first compound 0.8 µM
  relative viability: 0.179
NCI-H647; first compound 2.53 µM
  relative viability: 0.223
NCI-H1437; first compound 0.08 µM
  relative viability: 0.425
NCI-H1437; first compound 0.253 µM
  relative viability: 0.369
NCI-H1437; first compound 0.8 µM
  relative viability: 0.309
NCI-H1437; first compound 2.53 µM
  relative viability: 0.278
NCI-H1651; first compound 0.08 µM
  relative viability: 0.426
NCI-H1651; first compound 0.253 µM
  relative viability: 0.436
NCI-H1651; first compound 0.8 µM
  relative viability: 0.376
NCI-H1651; first compound 2.53 µM
  relative viability: 0.355
HCC-78; first compound 0.08 µM
  relative viability: 0.434
HCC-78; first compound 0.253 µM
  relative viability: 0.364
HCC-78; first compound 0.8 µM
  relative viability: 0.41
HCC-78; first compound 2.53 µM
  relative viability: 0.371
NCI-H661; first compound 0.08 µM
  relative viability: 1.04
NCI-H661; first compound 0.253 µM
  relative viability: 0.778
NCI-H661; first compound 0.8 µM
  relative viability: 0.845
NCI-H661; first compound 2.53 µM
  relative viability: 0.794
NCI-H1395; first compound 0.08 µM
  relative viability: 0.405
NCI-H1395; first compound 0.253 µM
  relative viability: 0.401
NCI-H1395; first compound 0.8 µM
  relative viability: 0.443
NCI-H1395; first compound 2.53 µM
  relative viability: 0.432
NCI-H1793; first compound 0.08 µM
  relative viability: 0.384
NCI-H1793; first compound 0.253 µM
  relative viability: 0.365
NCI-H1793; first compound 0.8 µM
  relative viability: 0.411
NCI-H1793; first compound 2.53 µM
  relative viability: 0.468
NCI-H23; first compound 0.08 µM
  relative viability: 0.879
NCI-H23; first compound 0.253 µM
  relative viability: 0.751
NCI-H23; first compound 0.8 µM
  relative viability: 0.871
NCI-H23; first compound 2.53 µM
  relative viability: 0.713
NCI-H1734; first compound 0.08 µM
  relative viability: 0.461
NCI-H1734; first compound 0.253 µM
  relative viability: 0.417
NCI-H1734; first compound 0.8 µM
  relative viability: 0.467
NCI-H1734; first compound 2.53 µM
  relative viability: 0.415
EMC-BAC-2; first compound 0.08 µM
  relative viability: 0.409
EMC-BAC-2; first compound 0.253 µM
  relative viability: 0.336
EMC-BAC-2; first compound 0.8 µM
  relative viability: 0.317
EMC-BAC-2; first compound 2.53 µM
  relative viability: 0.332
LCLC-103H; first compound 0.08 µM
  relative viability: 0.404
LCLC-103H; first compound 0.253 µM
  relative viability: 0.442
LCLC-103H; first compound 0.8 µM
  relative viability: 0.434
LCLC-103H; first compound 2.53 µM
  relative viability: 0.433
ABC-1; first compound 0.08 µM
  relative viability: 0.553
ABC-1; first compound 0.8 µM
  relative viability: 0.476
ABC-1; first compound 2.53 µM
  relative viability: 0.417
NCI-H1792; first compound 0.08 µM
  relative viability: 0.998
NCI-H1792; first compound 0.253 µM
  relative viability: 0.777
NCI-H1792; first compound 0.8 µM
  relative viability: 0.772
NCI-H1792; first compound 2.53 µM
  relative viability: 0.762
NCI-H2405; first compound 0.08 µM
  relative viability: 0.215
NCI-H2405; first compound 0.253 µM
  relative viability: 0.223
NCI-H2405; first compound 0.8 µM
  relative viability: 0.223
NCI-H2405; first compound 2.53 µM
  relative viability: 0.195
RERF-LC-KJ; first compound 0.08 µM
  relative viability: 0.9
RERF-LC-KJ; first compound 0.253 µM
  relative viability: 0.765
RERF-LC-KJ; first compound 0.8 µM
  relative viability: 0.796
RERF-LC-KJ; first compound 2.53 µM
  relative viability: 0.752
NCI-H1915; first compound 0.08 µM
  relative viability: 0.339
NCI-H1915; first compound 0.253 µM
  relative viability: 0.294
NCI-H1915; first compound 0.8 µM
  relative viability: 0.342
NCI-H1915; first compound 2.53 µM
  relative viability: 0.311
SK-LU-1; first compound 0.08 µM
  relative viability: 0.185
SK-LU-1; first compound 0.253 µM
  relative viability: 0.185
SK-LU-1; first compound 0.8 µM
  relative viability: 0.18
SK-LU-1; first compound 2.53 µM
  relative viability: 0.226
201T; first compound 0.08 µM
  relative viability: 0.621
201T; first compound 0.8 µM
  relative viability: 0.591
201T; first compound 2.53 µM
  relative viability: 0.571
EPLC-272H; first compound 0.253 µM
  relative viability: 0.374
EPLC-272H; first compound 0.8 µM
  relative viability: 0.409
EPLC-272H; first compound 2.53 µM
  relative viability: 0.397
NCI-H2023; first compound 0.08 µM
  relative viability: 0.811
NCI-H2023; first compound 0.253 µM
  relative viability: 0.532
NCI-H2023; first compound 0.8 µM
  relative viability: 0.599
NCI-H2023; first compound 2.53 µM
  relative viability: 0.636
NCI-H1975; first compound 0.08 µM
  relative viability: 0.427
NCI-H1975; first compound 0.253 µM
  relative viability: 0.336
NCI-H1975; first compound 0.8 µM
  relative viability: 0.282
NCI-H1975; first compound 2.53 µM
  relative viability: 0.241
UMC-11; first compound 0.08 µM
  relative viability: 0.515
UMC-11; first compound 0.253 µM
  relative viability: 0.542
UMC-11; first compound 0.8 µM
  relative viability: 0.498
UMC-11; first compound 2.53 µM
  relative viability: 0.527
LOU-NH91; first compound 0.08 µM
  relative viability: 0.562
LOU-NH91; first compound 0.253 µM
  relative viability: 0.558
LOU-NH91; first compound 0.8 µM
  relative viability: 0.55
LOU-NH91; first compound 2.53 µM
  relative viability: 0.514
